What all share (format): cell-based
For one assay, the system named is PI3K signalling activity. The assay can be described thus: Kinase reaction on immobilized BAD with lysates of serum-stimulated NIH-3T3 cells pre-treated or not with inhibitors, LC-MS readout. The note with it: starved NIH-3T3 cells pre-treated with inhibitor, 10% fetal calf serum 5 minutes before lysis. As to the method:
Starved NIH-3T3 cells, pre-treated or not with the inhibitors Wortmannin (WM) or PD98059 (PD), were stimulated with 10% fetal calf serum for 5 minutes prior to cell lysis. Cell lysates were mixed with immobilized BAD and ATP/Mg^2+ and reactions allowed to occur at 37° C. for the indicated times. Reactions were stopped and beads washed to remove lysate components and to buffer exchange to 50 mM ammonium bicarbonate. Immobilized phosphorylated BAD was digested with trypsin and resultant peptides analysed by LC-MS and LC-MS/MS.
Mass spectrometry was used to multiplex the measurement of protein kinase activities, using BAD as a substrate for in vitro reactions. BAD is a known substrate of the protein kinase AKT/PKB, which is downstream of PI3K and upstream mTORC1. Mouse His-Tag-BAD protein was immobilized to SEPHAROSE® beads. In subsequent experiments, human proteins were synthesised with N-terminal GST and His tags separated by a PreScission protease cleavage site. Purification was performed with glutathione S-sepharose chromatography. […] These immobilized proteins were used as substrates for kinase reactions using total cell lysates as an enzyme source.
Starved NIH-3T3 cells, pre-treated or not with the inhibitors WM or PD, were stimulated with 10% fetal calf serum for 5 minutes prior to cell lysis. Cell lysates were mixed with immobilized BAD and ATP/Mg^2+ and reactions allowed to occur at 37° C. for the times indicated in FIG. 3. Reactions were stopped, and the beads washed three times to remove lysate components and to buffer exchange to 50 mM ammonium bicarbonate. For each wash, beads were isolated from the reaction by magnetic separation using a magnet. Immobilised phosphorylated BAD was digested with trypsin and resultant peptides analysed by LC-MS and LC-MS/MS. […] These observed activities increased when serum was added to the medium prior to lysis and were sensitive to the addition of wortmannin (WM) but not the MEK inhibitor PD98059 (PD), thus arguing that these activities are a measure of WM target inhibition, probably PI3K signalling activity, a known target of WM, and are probably downstream PI3K.

Assay [1] has as its system PI3K. Briefly: Multiplex kinase assay on immobilized full length protein substrates (pool 1, pool 2) with lysates of P31-Fuj AML cells, LC-MS readout. The arrangement: relative kinase activity (normalized to mean of control and treated, log 2 converted), phosphopeptide SMAD-1 RVESPVLPPVLVPR SEQ ID NO: 5: dose or concentration left out as unconfirmed. How it is done: P31-Fuj AML cells were seeded at a density of 500000 cells/mL. […] Cells were washed twice in ice cold PBS containing 100 mM NaVO3 and 1 mM NaF and were subsequently harvested and lysed in the following lysis buffer: 40 mM Hepes pH 7.5, 120 mM NaCl, 1 mM EDTA, 10 mM pyrophosphate, 10 mM glycerophosphate, 50 mM NaF, 0.5 mM orthovanadate, 0.3% CHAPS, and complete protease inhibitors (Roche). […] After allowing the reactions to occur in the presence of ATP and Mg^2+, samples were trypsin digested and subject to LC-MS analysis. […] Data from a peptide kinase assay using the Aktide peptide (a peptide substrate with sequence RPRAATF—SEQ ID NO: 24—known to provide a readout of PI3K pathway activation) was compared with the data from a multiplex kinase assay using full length protein substrates.

In assay [2] the test system is PI3K. The assay can be described thus: Peptide kinase assay using the Aktide peptide (protocols of WO 07/127,767) with P31-Fuji total cell lysates. The conditions noted are these: P31-Fuji cells treated with LY294002 before lysis, vs control.
Description: Data from a peptide kinase assay using the Aktide peptide (a peptide substrate with sequence RPRAATF—SEQ ID NO: 24—known to provide a readout of PI3K pathway activation) was compared with the data from a multiplex kinase assay using full length protein substrates. For this, P31-Fuji cells (an acute myeloid leukaemia cell line) were lysed and the kinase activity in total cell lysates measured using the protocols disclosed in WO 07/127,767 or using the protocols disclosed herein. Before lysis, cells were divided into two groups—(1) control and (2) treated with LY294002 (an inhibitor of PI3K which controls downstream protein kinases that phosphorylate the Aktide).
The mark [3] stands for this setting: Pool 1, P31-Fuj AML cells, 10 mM LY204002 for 1 hr.
Where [4] appears, read: Pool 2, P31-Fuj AML cells, 10 mM LY204002 for 1 hr.
Setting [5] is: full length protein substrate, P31-Fuji cells treated with LY294002 before lysis, vs control.

Each structure is given as a SMILES string.

We go through two molecules from US20110281289A1, “QUANTIFICATION OF ENZYME ACTIVITY BY MASS SPECTROMETRY USING IMMOBILIZED SUBSTRATES” (LUDWIG INSTITUTE FOR CANCER RESEARCH LTD., priority 2008, published 2011).

Take `COc1cccc(-c2cc(=O)c3ccccc3o2)c1N` [PD98059]: in the assay on PI3K signalling activity, the “kinase activity towards BAD pS136 (SEQ ID NO: 4)” value is “not sensitive” and the “kinase activity towards BAD pS170 (SEQ ID NO: 3)” value is “not sensitive”. Besides, in the assay with PI3K signalling activity (listed as PD), the “kinase activity towards BAD pS136 (SEQ ID NO: 4)” value was “sensitive to the addition of WM but not PD” and the “kinase activity towards BAD pS170 (SEQ ID NO: 3)” value is “sensitive to the addition of WM but not PD”.
For the molecule `O=c1cc(N2CCOCC2)oc2c(-c3ccccc3)cccc12` [Ly294002, LY294002], in the assay on PI3K [1] (setting [3]), the “relative kinase activity (normalized, log 2), phosphopeptide Annexin MYGISLCQAILDETKGDYEK SEQ ID NO: 11” value is 0.429; the “relative kinase activity (normalized, log 2), phosphopeptide Beta Catenin AAVSHWQQQSYLDSGIHSGATTTAPSLSGK SEQ ID NO: 12” value is listed as −1.337; the “relative kinase activity (normalized, log 2), phosphopeptide Beta Catenin TSMGGTQQQFVEGVR SEQ ID NO: 13” value is recorded as −0.5836; the “relative kinase activity (normalized, log 2), phosphopeptide SMAD-1 HSEYNPQHSLLAQFR SEQ ID NO: 6” value is −2.2905. For the same molecule, in the assay on PI3K [1] (setting [3]), the “relative kinase activity (normalized, log 2), phosphopeptide myc CHVSTHQHNYAAPPSTR SEQ ID NO: 7” value is listed as 0.1282; the “relative kinase activity (normalized, log 2), phosphopeptide myc FELLPTPPLSPSR SEQ ID NO: 8” value stood at 0.1492; the “relative kinase activity (normalized, log 2), phosphopeptide myc FELLPTPPLSPSRR SEQ ID NO: 9” value is on record as −0.0685; the “relative kinase activity (normalized, log 2), phosphopeptide myc VKLDSVR SEQ ID NO: 10” value is -0.3467. In addition, the “relative kinase activity (normalized to mean of control and treated, log 2 converted), phosphopeptide SMAD-1 RVESPVLPPVLVPR SEQ ID NO: 5” value in the assay with PI3K [1] (Pool 1, P31-Fuj AML cells, LY204002 for 1 hr) is on record as −0.6559. Besides, in the assay with PI3K [1] (setting [4]), the “relative kinase activity (normalized, log 2), phosphopeptide 4ebp1 TPPRDLPTIPGVTSPSSDEPPMEASQSHLR SEQ ID NO: 19” value is recorded as −4.332; the “relative kinase activity (normalized, log 2), phosphopeptide S6 DIPGLTDTTVPR SEQ ID NO: 14” value is −0.573; the “relative kinase activity (normalized, log 2), phosphopeptide S6 DIPGLTDTTVPRR SEQ ID NO: 15” value is on record as 0.007685; the “relative kinase activity (normalized, log 2), phosphopeptide foxo AVSMDNSNKYTK SEQ ID NO: 18” value is −0.6542. Further, in the assay on PI3K [1] (setting [4]), the “relative kinase activity (normalized, log 2), phosphopeptide foxo HNLSLHSR SEQ ID NO: 17” value is −0.1853; the “relative kinase activity (normalized, log 2), phosphopeptide foxo WPGSPTSR SEQ ID NO: 16” value is recorded as −0.6519; the “relative kinase activity (normalized, log 2), phosphopeptide p53 ALPNNTSSSPQPK SEQ ID NO: 21” value was −5.826; the “relative kinase activity (normalized, log 2), phosphopeptide p53 CSDSDGLAPPQHLIR SEQ ID NO: 22” value was −3.078. Further, in the assay with PI3K [1] (setting [4]), the “relative kinase activity (normalized, log 2), phosphopeptide p53 RALPNNTSSSPQPK SEQ ID NO: 23” value is listed as −1.587 and the “relative kinase activity (normalized, log 2), phosphopeptide p53 SVTCTYSPALNK SEQ ID NO: 20” value was −2.051. In the assay with PI3K [1] (setting [5]), the “reduction of kinase activity towards Ser94 on the substrate 4EBP1” value was 95% and the “reduction of kinase activity towards Ser121 on the substrate p53” value turned out to be 99%. Moreover, in the assay on PI3K [2], the “reduction on the kinase activity towards the Aktide” value was “about 85%”.
